# According to ChEMBL document CHEMBL3352610, “Discovery of potent and selective GIRK1/2 modulators via 'molecular switches' within a series of 1-(3-cyclopropyl-1-phenyl-1H-pyrazol-5-yl)ureas” (Bioorg Med Chem Lett, 2014):
# The source made the active and inactive calls. No cut-off for these calls is given here.
# Target: T1, Kir3.1/Kir3.4 (Homo sapiens, UniProt P48544+P48549)
# T1 sequence (P48549 whole entry): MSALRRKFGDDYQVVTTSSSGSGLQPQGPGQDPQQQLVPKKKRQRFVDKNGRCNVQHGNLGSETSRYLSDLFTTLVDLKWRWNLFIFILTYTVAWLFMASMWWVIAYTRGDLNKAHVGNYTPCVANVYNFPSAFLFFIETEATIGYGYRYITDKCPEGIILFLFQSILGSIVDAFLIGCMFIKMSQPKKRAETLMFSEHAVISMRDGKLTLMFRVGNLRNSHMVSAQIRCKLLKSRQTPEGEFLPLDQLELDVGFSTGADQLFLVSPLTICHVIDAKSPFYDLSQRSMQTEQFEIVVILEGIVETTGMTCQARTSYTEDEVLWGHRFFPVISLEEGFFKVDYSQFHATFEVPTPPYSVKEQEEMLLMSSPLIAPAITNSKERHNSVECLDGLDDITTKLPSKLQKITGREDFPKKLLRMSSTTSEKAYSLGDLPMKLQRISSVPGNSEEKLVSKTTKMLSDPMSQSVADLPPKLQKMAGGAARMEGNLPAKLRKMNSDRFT
# T1 sequence (P48544 whole entry): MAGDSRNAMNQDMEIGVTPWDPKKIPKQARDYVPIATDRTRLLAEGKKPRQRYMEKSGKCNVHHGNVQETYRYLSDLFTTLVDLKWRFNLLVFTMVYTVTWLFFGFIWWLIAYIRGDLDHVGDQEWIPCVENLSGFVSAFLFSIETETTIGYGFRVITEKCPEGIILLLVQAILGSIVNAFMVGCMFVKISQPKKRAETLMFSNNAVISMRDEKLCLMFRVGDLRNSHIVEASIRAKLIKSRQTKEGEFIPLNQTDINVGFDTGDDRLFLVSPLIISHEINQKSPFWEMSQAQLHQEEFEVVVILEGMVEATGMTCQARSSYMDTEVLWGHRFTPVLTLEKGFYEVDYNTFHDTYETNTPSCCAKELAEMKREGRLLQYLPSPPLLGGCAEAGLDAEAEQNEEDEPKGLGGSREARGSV
# Assay: Activation of GIRK1/4 (unknown origin) by thallium-flux based assay
# Type: protein-complex assay
# Details: not given
row,Structure (SMILES),EC50 [µM]
1,Cc1cc(NC(=O)Nc2cc(C3CC3C)nn2CC(F)(F)F)ccc1F (stereo unspecified),1.2
2,CC1CC1c1cc(NC(=O)Nc2ccc(C(F)(F)F)cc2)n(CC(F)(F)F)n1 (stereo unspecified),2
3,CC1CC1c1cc(NC(=O)Nc2ccc(F)c(F)c2)n(CC(F)(F)F)n1 (stereo unspecified),4.9
4,CC1CC1c1cc(NC(=O)Nc2ccc(Cl)cc2)n(CC(F)(F)F)n1 (stereo unspecified),1.8
5,CC1CC1c1cc(NC(=O)Nc2cccc(F)c2)n(CC(F)(F)F)n1 (stereo unspecified),1
6,Cc1ccc(NC(=O)Nc2cc(C3CC3C)nn2CC(F)(F)F)cc1 (stereo unspecified),2.3

# Target: Kir3.2/Kir3.3 (Homo sapiens) (UniProt P48051+Q92806)
# Assay: Modulation of GIRK2/3 (unknown origin) by thallium-flux based assay
# Type: protein-complex assay
# Details: not given
row,Structure (SMILES),Activity
1,Cc1cc(NC(=O)Nc2ccc(F)c(F)c2)n(-c2ccccc2)n1,inactive

# Target: Kir3.1/Kir3.4 (Homo sapiens) (UniProt P48549+P48544)
# Assay: Activation of GIRK1/4 (unknown origin) by thallium-flux based assay relative to ML297
# Type: protein-complex assay
# Details: not given
row,Structure (SMILES),Efficacy [%]
1,Cc1cc(NC(=O)Nc2cc(C3CC3C)nn2CC(F)(F)F)ccc1F (stereo unspecified),35
2,CC1CC1c1cc(NC(=O)Nc2ccc(C(F)(F)F)cc2)n(CC(F)(F)F)n1 (stereo unspecified),100
3,CC1CC1c1cc(NC(=O)Nc2ccc(F)c(F)c2)n(CC(F)(F)F)n1 (stereo unspecified),112
4,CC1CC1c1cc(NC(=O)Nc2ccc(Cl)cc2)n(CC(F)(F)F)n1 (stereo unspecified),100
5,CC1CC1c1cc(NC(=O)Nc2cccc(F)c2)n(CC(F)(F)F)n1 (stereo unspecified),100
6,Cc1ccc(NC(=O)Nc2cc(C3CC3C)nn2CC(F)(F)F)cc1 (stereo unspecified),100

# Target: T2, Kir3.1/Kir3.2 (Homo sapiens, UniProt P48051+P48549)
# T2 sequence (P48549 whole entry): T1 sequence (P48549 whole entry)
# T2 sequence (P48051 whole entry): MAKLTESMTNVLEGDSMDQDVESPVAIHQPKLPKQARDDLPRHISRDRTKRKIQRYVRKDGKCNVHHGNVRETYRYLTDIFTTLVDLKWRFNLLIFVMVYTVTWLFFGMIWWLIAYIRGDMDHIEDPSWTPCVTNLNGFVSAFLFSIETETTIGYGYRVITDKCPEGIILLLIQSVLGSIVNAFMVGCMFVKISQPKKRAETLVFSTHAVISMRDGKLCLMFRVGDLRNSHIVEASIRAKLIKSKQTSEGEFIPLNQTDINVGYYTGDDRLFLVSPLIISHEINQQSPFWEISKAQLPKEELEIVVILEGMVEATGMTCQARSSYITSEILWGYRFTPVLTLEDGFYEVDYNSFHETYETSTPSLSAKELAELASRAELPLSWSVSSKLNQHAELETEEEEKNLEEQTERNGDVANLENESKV
# Assay: Activation of GIRK1/2 (unknown origin) by thallium-flux based assay
# Type: protein-complex assay
# Details: not given
row,Structure (SMILES),EC50 [µM]
1,Cc1cc(NC(=O)Nc2cc(C3CC3C)nn2CC(F)(F)F)ccc1F (stereo unspecified),0.7
2,CC1CC1c1cc(NC(=O)Nc2ccc(C(F)(F)F)cc2)n(CC(F)(F)F)n1 (stereo unspecified),0.31
3,CC1CC1c1cc(NC(=O)Nc2ccc(F)c(F)c2)n(CC(F)(F)F)n1 (stereo unspecified),4.9
4,CC1CC1c1cc(NC(=O)Nc2ccc(Cl)cc2)n(CC(F)(F)F)n1 (stereo unspecified),0.15
5,CC1CC1c1cc(NC(=O)Nc2cccc(F)c2)n(CC(F)(F)F)n1 (stereo unspecified),0.31
6,Cc1ccc(NC(=O)Nc2cc(C3CC3C)nn2CC(F)(F)F)cc1 (stereo unspecified),0.27

# Target: Kir3.1/Kir3.2 (Homo sapiens) (UniProt P48549+P48051)
# Assay: Activation of GIRK1/2 (unknown origin) by thallium-flux based assay relative to ML297
# Type: protein-complex assay
# Details: not given
row,Structure (SMILES),Efficacy [%]
1,Cc1cc(NC(=O)Nc2cc(C3CC3C)nn2CC(F)(F)F)ccc1F (stereo unspecified),81
2,CC1CC1c1cc(NC(=O)Nc2ccc(C(F)(F)F)cc2)n(CC(F)(F)F)n1 (stereo unspecified),70
3,CC1CC1c1cc(NC(=O)Nc2ccc(F)c(F)c2)n(CC(F)(F)F)n1 (stereo unspecified),100
4,CC1CC1c1cc(NC(=O)Nc2ccc(Cl)cc2)n(CC(F)(F)F)n1 (stereo unspecified),66
5,CC1CC1c1cc(NC(=O)Nc2cccc(F)c2)n(CC(F)(F)F)n1 (stereo unspecified),101
6,Cc1ccc(NC(=O)Nc2cc(C3CC3C)nn2CC(F)(F)F)cc1 (stereo unspecified),67

# Tested on: not listed separately
# Assay: Stability in rat microsomes assessed as compound remaining measured after 90 mins
# Type: ADME, Microsome
# Details: read-out: Stability
row,Structure (SMILES),remaining at […] [%]
1,Cc1cc(NC(=O)Nc2ccc(F)c(F)c2)n(-c2ccccc2)n1,45
